Reference: patent US11466010B2, “Toll-like receptor 8 (TLR8) specific antagonists and methods of making and uses thereof” (The Regents of the University of Colorado, a body corporate, priority 2017, dated 2022)

Columns and labels:
[1] = tested on: TNF-α production in PBMCs from RA patients; test: TNF-α level in PBMCs harvested from RA patients; format: cell-based, human; details: PBMCs from RA patients and one AOSD patient; dose-dependent
[2] = tested on: TNF-α production in PBMCs from an AOSD patient; test: TNF-α level in PBMCs harvested from an AOSD patient; format: cell-based, human
Experimental: But there is a lack of appropriate rodent models because TLR8 is not functional in either mice or rats. Therefore, the TLR8 inhibitors of this disclosure were tested in human specimens harvested from patients with osteoarthritis (OA), rheumatoid arthritis (RA), and adult onset-Still's disease (AOSD). It is well established that TNF-α and IL-1β are key cytokines in the process of chronic joint inflammation in cartilage. Therefore, synovial cells were isolated from synovial tissue of patients who underwent joint replacement surgery due to severe OA. Previous studies have indicated these pathological tissues express both TLR7 and TLR8 with elevated production of various cytokines, contributing to extensive articular destruction and functional decline.

[3] = biological target: T1, human TLR8 transgene (Homo sapiens, UniProt Q9NR97); test: IL-12p40 production in splenocytes from hTLR8tg/TLR7-KO mice, TLR8 agonist ORN8L; format: cell-based, mouse; details: ORN8L 100 ug/mL, 48 hours
T1 construct: expressed in transfected cells; host or cells: primary splenocytes from hTLR8tg/TLR7-KO mice
T1 sequence (Q9NR97 27-1041): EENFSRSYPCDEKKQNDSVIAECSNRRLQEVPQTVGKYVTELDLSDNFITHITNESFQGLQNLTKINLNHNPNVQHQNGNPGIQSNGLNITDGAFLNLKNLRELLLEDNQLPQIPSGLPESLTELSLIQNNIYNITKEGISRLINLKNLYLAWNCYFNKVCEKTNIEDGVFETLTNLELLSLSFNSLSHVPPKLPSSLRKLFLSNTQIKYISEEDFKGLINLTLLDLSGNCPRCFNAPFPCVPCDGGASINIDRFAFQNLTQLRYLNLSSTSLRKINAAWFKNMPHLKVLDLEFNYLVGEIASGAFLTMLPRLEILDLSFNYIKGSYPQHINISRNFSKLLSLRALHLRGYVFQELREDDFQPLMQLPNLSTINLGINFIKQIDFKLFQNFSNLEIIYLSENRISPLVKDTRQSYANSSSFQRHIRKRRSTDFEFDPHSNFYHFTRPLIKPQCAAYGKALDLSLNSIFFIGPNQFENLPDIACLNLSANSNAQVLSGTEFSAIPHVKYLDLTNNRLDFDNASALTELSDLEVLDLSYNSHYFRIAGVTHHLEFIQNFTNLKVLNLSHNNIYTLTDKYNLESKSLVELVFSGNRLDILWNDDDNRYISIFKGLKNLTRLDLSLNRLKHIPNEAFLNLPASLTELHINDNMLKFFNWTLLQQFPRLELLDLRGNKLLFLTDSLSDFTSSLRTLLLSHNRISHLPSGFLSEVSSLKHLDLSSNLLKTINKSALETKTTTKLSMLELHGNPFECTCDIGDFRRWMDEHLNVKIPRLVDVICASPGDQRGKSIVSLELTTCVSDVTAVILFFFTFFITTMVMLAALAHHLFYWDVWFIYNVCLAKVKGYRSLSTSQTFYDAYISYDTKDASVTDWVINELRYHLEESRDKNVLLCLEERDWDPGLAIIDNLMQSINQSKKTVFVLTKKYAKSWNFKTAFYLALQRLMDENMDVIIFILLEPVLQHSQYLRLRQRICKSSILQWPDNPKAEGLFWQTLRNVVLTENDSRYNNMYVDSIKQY
Experimental: Activity on primary mouse splenocytes: To assess TLR8 and TLR9 activity, spleens were isolated from TLR7 knock-out mice harboring a human TLR8 transgene (hTLR8tg/TLR7-KO). Splenocytes were prepared by dissociation through a cell strainer and removal of red blood cells with lysis buffer. Splenocytes were incubated with a dilution series of compounds and a constant amount of a TLR8 agonist (RNA oligonucleotide ORN8L) or a TLR9 agonist (CpG-containing phosphorothioate DNA oligonucleotide 1018). After 48 hours, culture supernatants were collected and analyzed for IL-12p40 production. Curves represent activity from a single spleen.

[4] = biological target: T2, TLR8 (Homo sapiens, UniProt Q9NR97); test: Gel filtration chromatography of TLR8 dimerization; format: binding; details: diluted TLR8, dose-dependent
T2 construct: hTLR8, residues 27-827; made in house
T2 sequence (Q9NR97 27-827): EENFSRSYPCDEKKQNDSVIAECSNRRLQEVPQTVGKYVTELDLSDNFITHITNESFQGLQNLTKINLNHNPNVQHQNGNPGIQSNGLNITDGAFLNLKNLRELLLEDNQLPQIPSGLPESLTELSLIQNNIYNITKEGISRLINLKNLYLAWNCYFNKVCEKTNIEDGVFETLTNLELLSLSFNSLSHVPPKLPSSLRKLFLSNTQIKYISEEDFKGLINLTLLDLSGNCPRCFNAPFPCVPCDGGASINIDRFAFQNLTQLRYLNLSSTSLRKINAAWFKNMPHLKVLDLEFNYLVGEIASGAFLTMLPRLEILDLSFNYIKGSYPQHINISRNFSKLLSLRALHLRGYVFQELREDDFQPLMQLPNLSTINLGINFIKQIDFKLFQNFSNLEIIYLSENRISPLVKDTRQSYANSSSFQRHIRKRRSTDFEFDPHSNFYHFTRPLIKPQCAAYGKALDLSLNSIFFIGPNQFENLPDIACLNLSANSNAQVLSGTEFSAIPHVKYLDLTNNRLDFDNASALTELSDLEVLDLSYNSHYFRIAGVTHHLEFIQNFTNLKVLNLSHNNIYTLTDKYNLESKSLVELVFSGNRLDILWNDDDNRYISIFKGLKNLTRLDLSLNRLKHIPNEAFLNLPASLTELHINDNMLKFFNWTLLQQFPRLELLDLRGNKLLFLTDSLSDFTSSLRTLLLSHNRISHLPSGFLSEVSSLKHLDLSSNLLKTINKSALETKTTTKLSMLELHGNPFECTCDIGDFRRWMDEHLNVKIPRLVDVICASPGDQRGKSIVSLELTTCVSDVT
Experimental: Gel filtration chromatography with diluted TLR8 proteins, in which TLR8 exists as a monomer, was conducted to determine the dimerization state of TLR8 in the absence and presence of different ligands (FIGS. 10A and 10B).

SMILES	TNF-α level in patient PBMCs [1]	TNF-α level in PBMCs from an AOSD patient [2]	IL-12p40 production as a monitor of TLR8 signaling [3]	retention volume of TLR8 (dimer stabilization in solution) [4]
COc1ccc2c(-c3ccc(O)c(C)c3)ccnc2c1 [Compound 11a, 2-Methyl-4-(7-methoxyl-4-quinolinyl)-phenol]	significantly suppressed	dose-dependent suppression	inhibition	–
Cc1cc(-c2ccnc3cc(O)ccc23)ccc1O [Compound 11b, 2-Methyl-4-(7-hydroxyl-4-quinolinyl)-phenol]	–	–	inhibition	smaller retention volume
